According to PubChem BioAssay AID296 (DTP/NCI, 2004):
Values joined by “and” are separate entries in the source; they are usually repeats but may differ in a detail not shown here. Equal values may be shown once. Inconclusive results are not listed.

System: MX-1 breast xenograft, nude mice, tumor weight T/C
Experiment: NCI In Vivo Anticancer Drug Screen. Data for tumor model Human Mammary Carcinoma MX-1 Xenograft (intrarenal inoculation) in NU/NU Swiss (nude) mice
Conditions: endpoint: mean tumor weight change, higher = larger tumour
Summary of the method: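 Compound dosed to mice with transplantable tumor; vehicle group as control. Endpoint survival or tumour size, reported as T/C.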

[1] = dose: 75.0 mg/kg/injection, schedule: Q04DX003 (sc), vehicle: saline with Tween-80
[2] = dose: 50.0 mg/kg/injection, schedule: Q01DX010 (sc), vehicle: Klucel (hydroxypropylcellulose) (HPC)
[3] = dose: 600.0 mg/kg/injection, schedule: Q04DX003 (sc), vehicle: saline with Tween-80
[4] = dose: 1200.0 mg/kg/injection, schedule: Q04DX003 (sc), vehicle: saline with Tween-80
[5] = dose: 2400.0 mg/kg/injection, schedule: Q04DX003 (sc), vehicle: saline with Tween-80
[6] = dose: 200.0 mg/kg/injection, schedule: Q01DX010 (sc), vehicle: saline with Tween-80

OC1CCCC2CCCNC12 (centres undefined)
T/C (dose: 37.5 mg/kg/injection, schedule: Q04DX003 (sc), vehicle: saline with Tween-80): 76 % of control | T/C [1]: 85 % of control

Cc1ccc(S(=O)(=O)N/N=C/C(=O)O)cc1
T/C (dose: 25.0 mg/kg/injection, schedule: Q01DX010 (sc), vehicle: Klucel (hydroxypropylcellulose) (HPC)): 90 % of control | T/C [2]: 103 % of control | T/C (dose: 400.0 mg/kg/injection, schedule: Q01DX010 (sc), vehicle: Klucel (hydroxypropylcellulose) (HPC)): 58 % of control | T/C (dose: 800.0 mg/kg/injection, schedule: Q01DX010 (sc), vehicle: Klucel (hydroxypropylcellulose) (HPC)): 71 % of control

N[C@@H](Cc1ccc(N(CCCl)CCCl)cc1)C(=O)O
T/C (dose: 1.5 mg/kg/injection, schedule: Q04DX003 (sc), vehicle: suspension in saline): 23 % of control and 34 % of control | T/C (dose: 2.0 mg/kg/injection, schedule: Q01DX010 (ip), vehicle: saline): -42 % of control and -36 % of control | T/C (dose: 3.0 mg/kg/injection, schedule: Q04DX003 (sc), vehicle: suspension in saline): 4 % of control and 8 % of control | T/C (dose: 3.33 mg/kg/injection, schedule: Q04DX003 (ip), vehicle: saline): -15 % of control | T/C (dose: 3.33 mg/kg/injection, schedule: Q04DX003 (sc), vehicle: saline): 7 % of control | T/C (dose: 4.0 mg/kg/injection, schedule: Q01DX010 (ip), vehicle: saline): -91 % of control | T/C (dose: 4.0 mg/kg/injection, schedule: Q01DX010 (sc), vehicle: suspension in saline): -100 % of control | T/C (dose: 6.0 mg/kg/injection, schedule: Q04DX003 (sc), vehicle: suspension in saline): -72 % of control and -58 % of control | T/C (dose: 6.65 mg/kg/injection, schedule: Q04DX003 (ip), vehicle: saline): -87 % of control | T/C (dose: 6.65 mg/kg/injection, schedule: Q04DX003 (sc), vehicle: saline): -51 % of control | T/C (dose: 12.0 mg/kg/injection, schedule: Q04DX003 (sc), vehicle: saline): -100 % of control | T/C (dose: 12.0 mg/kg/injection, schedule: Q04DX003 (sc), vehicle: suspension in saline): -100 % of control

CCCCCCOC(CN(C)C)C(Cl)(Cl)Cl (centres undefined)
T/C (dose: 300.0 mg/kg/injection, schedule: Q04DX003 (sc), vehicle: saline with Tween-80): 70 % of control | T/C [3]: 69 % of control | T/C [4]: 71 % of control | T/C [5]: 58 % of control

CS(=O)(=O)OCCN(CCOS(C)(=O)=O)c1ccc(C=Nc2ccc(-c3csc(COc4ccccc4)n3)cc2)cc1
T/C [2]: 37 % of control | T/C (dose: 100.0 mg/kg/injection, schedule: Q01DX010 (sc), vehicle: Klucel (hydroxypropylcellulose) (HPC)): -18 % of control | T/C (dose: 200.0 mg/kg/injection, schedule: Q01DX010 (sc), vehicle: Klucel (hydroxypropylcellulose) (HPC)): -84 % of control

CC(Cc1ccc(O)cc1)NCC(O)c1ccc(O)c(O)c1 (centres undefined)
T/C [1]: 91 % of control | T/C (dose: 150.0 mg/kg/injection, schedule: Q04DX003 (sc), vehicle: saline with Tween-80): 96 % of control | T/C [3]: 67 % of control | T/C [4]: 82 % of control | T/C [5]: 45 % of control

C1CNCOC1
T/C (dose: 150.0 mg/kg/injection, schedule: Q04DX003 (sc), vehicle: saline): 100 % of control | T/C (dose: 300.0 mg/kg/injection, schedule: Q04DX003 (sc), vehicle: saline): 84 % of control

Nc1nc2ccc(NCc3ccc(C(=O)NC(CCC(=O)O)C(=O)O)cc3)cc2c(=O)[nH]1 (centres undefined)
T/C (dose: 100.0 mg/kg/injection, schedule: Q04DX003 (sc), vehicle: saline with Tween-80): 93 % of control | T/C (dose: 200.0 mg/kg/injection, schedule: Q04DX003 (sc), vehicle: saline with Tween-80): 93 % of control | T/C (dose: 400.0 mg/kg/injection, schedule: Q04DX003 (sc), vehicle: saline with Tween-80): 90 % of control | T/C (dose: 800.0 mg/kg/injection, schedule: Q04DX003 (sc), vehicle: saline with Tween-80): 23 % of control

COc1cc(C[C@H]2c3cc(OC)c(OC)cc3CCN2C)c(Oc2cc3c(cc2OC)-c2c(OC)c(OC)cc4c2[C@H](C3)N(C)CC4)cc1OC
T/C (dose: 100.0 mg/kg/injection, schedule: Q01DX010 (sc), vehicle: saline with Tween-80): 95 % of control | T/C [6]: 67 % of control | T/C (dose: 400.0 mg/kg/injection, schedule: Q01DX010 (sc), vehicle: saline with Tween-80): 75 % of control | T/C (dose: 800.0 mg/kg/injection, schedule: Q01DX010 (sc), vehicle: saline with Tween-80): 71 % of control

O=C(NO)c1ccc(O)c(O)c1
T/C (dose: 200.0 mg/kg/injection, schedule: Q04DX003 (sc), vehicle: other): 26 % of control | T/C (dose: 200.0 mg/kg/injection, schedule: Q04DX003 (sc), vehicle: water): 104 % of control | T/C (dose: 400.0 mg/kg/injection, schedule: Q04DX003 (sc), vehicle: other): 60 % of control | T/C (dose: 400.0 mg/kg/injection, schedule: Q04DX003 (sc), vehicle: water): 87 % of control | T/C (dose: 800.0 mg/kg/injection, schedule: Q04DX003 (sc), vehicle: other): 18 % of control | T/C (dose: 800.0 mg/kg/injection, schedule: Q04DX003 (sc), vehicle: water): 78 % of control | T/C (dose: 1200.0 mg/kg/injection, schedule: Q04DX003 (sc), vehicle: distilled water + Tween-80): 77 % of control

CCOC(=O)N(C)N=NC
T/C (dose: 15.0 mg/kg/injection, schedule: Q04DX003 (ip), vehicle: saline): 97 % of control | T/C (dose: 30.0 mg/kg/injection, schedule: Q04DX003 (ip), vehicle: saline): 95 % of control | T/C (dose: 60.0 mg/kg/injection, schedule: Q04DX003 (ip), vehicle: saline): 71 % of control | T/C (dose: 120.0 mg/kg/injection, schedule: Q04DX003 (ip), vehicle: saline): 52 % of control

COc1cc([C@@H]2c3cc4c(c(O)c3C[C@H]3COC(=O)[C@@H]32)OCO4)cc(OC)c1O
T/C (dose: 0.5 mg/kg/injection, schedule: Q01DX010 (sc), vehicle: saline): 121 % of control | T/C (dose: 1.0 mg/kg/injection, schedule: Q01DX010 (sc), vehicle: saline): 114 % of control | T/C (dose: 2.0 mg/kg/injection, schedule: Q01DX010 (sc), vehicle: saline): 87 % of control | T/C (dose: 3.13 mg/kg/injection, schedule: Q01DX010 (sc), vehicle: saline): 104 % of control | T/C (dose: 4.0 mg/kg/injection, schedule: Q01DX010 (sc), vehicle: saline): 98 % of control | T/C (dose: 6.25 mg/kg/injection, schedule: Q01DX010 (sc), vehicle: saline): 34 % of control

COc1cc(C)c(C2NC(=O)c3ccccc3N2)cc1C (centres undefined)
T/C (dose: 300.0 mg/kg/injection, schedule: Q04DX003 (sc), vehicle: Klucel (hydroxypropylcellulose) (HPC)): 53 % of control | T/C (dose: 600.0 mg/kg/injection, schedule: Q04DX003 (sc), vehicle: Klucel (hydroxypropylcellulose) (HPC)): 115 % of control | T/C (dose: 1200.0 mg/kg/injection, schedule: Q04DX003 (sc), vehicle: Klucel (hydroxypropylcellulose) (HPC)): 93 % of control | T/C (dose: 2400.0 mg/kg/injection, schedule: Q04DX003 (sc), vehicle: Klucel (hydroxypropylcellulose) (HPC)): 90 % of control

Cc1nc(C(Cl)(Cl)Cl)[nH]c(=O)c1SCCO
T/C (dose: 150.0 mg/kg/injection, schedule: Q04DX003 (ip), vehicle: distilled water + alcohol): 162 % of control | T/C (dose: 300.0 mg/kg/injection, schedule: Q04DX003 (ip), vehicle: distilled water + alcohol): 195 % of control | T/C (dose: 600.0 mg/kg/injection, schedule: Q04DX003 (ip), vehicle: distilled water + alcohol): 50 % of control

C/C=C(\C)c1cc(=O)c2c(C)cc3c(c2o1)C(=O)c1c(O)c(C2CC(C)(N(C)C)C(O)C(C)O2)cc(C2CC(N(C)C)C(O)C(C)O2)c1C3=O (centres undefined)
T/C (dose: 2.0 mg/kg/injection, schedule: Q04DX003 (sc), vehicle: saline): 41 % of control | T/C (dose: 4.0 mg/kg/injection, schedule: Q04DX003 (sc), vehicle: saline): 24 % of control | T/C (dose: 8.0 mg/kg/injection, schedule: Q04DX003 (sc), vehicle: saline): 28 % of control

NCCCNCCSP(=O)(O)O
T/C (dose: 100.0 mg/kg/injection, schedule: Q04DX003 (sc), vehicle: saline): 98 % of control | T/C (dose: 200.0 mg/kg/injection, schedule: Q04DX003 (sc), vehicle: saline): 80 % of control | T/C (dose: 400.0 mg/kg/injection, schedule: Q04DX003 (sc), vehicle: saline): 91 % of control

CCCC(=O)Oc1ccc(/C=N/NC(N)=S)nc1
T/C (dose: 50.0 mg/kg/injection, schedule: Q01DX010 (sc), vehicle: saline with Tween-80): 101 % of control | T/C [6]: 113 % of control

N[C@@H](Cc1c[nH]c2ccccc12)C(=O)Nc1nncs1
T/C (dose: 300.0 mg/kg/injection, schedule: Q04DX003 (ip), vehicle: suspension in saline): 69 % of control | T/C (dose: 600.0 mg/kg/injection, schedule: Q04DX003 (ip), vehicle: suspension in saline): 50 % of control
